The record followed here is US20060149045A1, “Steroid compounds with anti-tumor activity” (priority 2002, published 2006).

In series [1] the test system is six human cancer cell lines (Hs683, U-373 MG, HCT-15, LoVo, A549, J82). The experiment in a line: MTT test, summary over the six cell lines. It is filed as cell-based. The conditions noted are these: for cytotoxic / anti-tumor activity on the 6 tested cell lines: result in words, FIGS. 3, 4 and 6. The method, then: In order to characterize the in vitro activities of the compounds according to the invention, MTT tests were carried out. The MTT test, which is a well-known test in the art, is an indirect technique that rapidly measures, i.e. within 5 days, the effect of a given product on the overall cell growth. This test measures the number of metabolically active living cells that are able to transform the MTT product (3-(4,5-dimethylthiazol-2-yl)-2,5 diphenyl tetrazolium bromide), having a yellowish color, to the blue product formazan dye by mitochondrial reduction. The amount of formazan obtained at the end of the experiment is measured with a spectrophotometer and is directly proportional to the number of living cells. Determination of the optical density enables a quantitative measurement of the effect of the investigated compounds as compared to the control condition (untreated cells) and to compare it to other reference compound. In the following examples different compounds according to the invention were tested and compared to the reference compound being UBS881.
Six human cancer cell lines, described in Table D, were tested in the presence of the extract according to the invention. These cell lines represent four histological cancer types, being glioma cancer (cell line Hs683 and U-373 MG), colon cancer (cell lineHCT-15 and LoVo), lung cancer (cell line A549) and bladder cancer (cell line J82). […]
After 72 hours of incubation at 37° C. with the compound (experimental conditions) or without the compound (control condition), the medium was replaced by 100 μl MTT at the concentration of 1 mg/ml dissolved in RPMI. […] The micro wells were shaken for 5 minutes and read on a spectrophotometer at the wavelengths of 570 nm corresponding to the maximum formazan absorbance wavelength, and of 630 nm, which is the background noise wavelength.
For each experimental condition, the mean OD associated with the SEM (standard error of the mean) for each condition (6 wells) was calculated. The percentage of remaining living cells in comparison with the control was calculated. […]
Background: Tetrazolium assays rely on reduction of a dye to a coloured formazan, in cell work by metabolically active cells.

The subject of series [2] is A549 (lung cancer) cells. The experiment in a line: Cell migration, phase-contrast video microscopy. The series is classed as cell-based, human. On the procedure: (§1) Cells of different cancer lines, i.e. U-373 MG (Glioma cancer), Hs578T (breast cancer) and A549 (lung cancer) were seeded on culture flask 48 hours before the migration experiment. On the test day, cells were treated with or without compounds UBS881, UBS1664, UBS3285, UBS3327 and UBS3328 in closed Falcon dishes containing a buffered medium at a controlled temperature (37.0±0.1° C.) for 12 or 24 hours. The compounds were administered at two non-cytotoxic concentrations (10^−6 M and 10^−7 M) for UBS881 and UBS1664, and at 4 concentrations (10^−7 M to 10^−10 M) for UBS3285, UBS3327 and UBS3328. Migration of the cells was observed by means of a CCD-camera mounted on a phase-contrast microscope. A statistical analyse of the migration, with the non-parametric Mann-Whitney test, was established for 25% of the most motile cells and for the entire cell population for UBS881 and UBS1664, and established for 25%-50% of the most motile cells and for the entire cell population for UBS3285, UBS3327 and UBS3328 compounds. The table F below illustrates the anti-migratory effect of the compound according to the invention.

Series [3] deals with U-373 MG (Glioma cancer) cells. The experiment in a line: Cell migration, phase-contrast video microscopy. The series is classed as cell-based, human. The method, then:
as §1

Series [4] deals with U-373 MG, Hs578T and/or A549 cancer cells. The experiment in a line: Cell migration, summary over the cell lines. The conditions noted are these: at the weak studied concentrations; result in words. It is filed as cell-based. On the procedure: as §1
Series [5] relates to Hs578T (breast cancer) cells. The experiment in a line: Cell migration, phase-contrast video microscopy. The series is classed as cell-based. The conditions noted are these: for 24 hours on the 25% of most motile cells, at 10^−7 M. The method, then:
as §1

Where [6] appears, read: for 24 hours on the 25% of most motile cells, at 10^−7 M.

Take `COc1ccc(OC)c(C2CC3C4CC(=O)C5=CC(=O)CCC5(C)C4CCC3(C)C2C(C)=O)c1` (centres unmarked) [UBS1664]: the “cytotoxic / anti-tumor activity on the 6 tested cell lines” value in series [1] is on record as “induced cytotoxic activity on all 6 tested cell lines”. Besides, the “Max. effects (anti-migratory effect)” value in series [2] (for 12 hours on the entire cell population, at 10^−7 M) is on record as −15%/p < 0.05; in series [3] (setting [6]), −27%/p < 0.001. Besides, the “migration level of cancer cells” value in series [4] was “induced a decrease in the migration level”.
For `COc1ccc(OC)c(C(C)(O)C2CCC3C4CC=C5CC(O)CCC5(C)C4CCC32C)c1` (centres unmarked) [UBS1740], the “cytotoxic / anti-tumor activity on the 6 tested cell lines” value in series [1] was “Hs683 and A549 cell lines were most sensitive”.
With `COc1ccc(OC)c(C(C)(O)C2CCC3C4CC(=O)C5=CC(=O)CCC5(C)C4CCC32C)c1` (centres unmarked) [UBS1819], the 50% inhibitory concentration (IC50) in series [1] (Homo sapiens, 72 hours incubation, range over all 6 cell lines) is 10 to 50 µM.
For `COc1ccc(OC)c(C2CC3C4CC=C5CC(OC6O[C@H](CO)[C@H](O)[C@H](O)[C@H]6O)CCC5(C)C4CCC3(C)C2C(C)=O)c1` (some centres unmarked) [UBS3285], in series [3] (for 24 hours on the 50% of most motile cells, at 10^−8 M), the “Max. effects (anti-migratory effect)” value was −22%/p < 0.001. Moreover, the “migration level of cancer cells” value in series [4] was “induced a decrease in the migration level”.
`COc1ccc(OC)c(C2CC3C4CC=C5CC(OC6O[C@H](CO)[C@@H](O[C@@H]7O[C@H](CO)[C@@H](O)[C@H](O)[C@H]7O)[C@H](O)[C@H]6O)CCC5(C)C4CCC3(C)C2C(C)=O)c1` (some centres unmarked) [UBS3327]: the “Max. effects (anti-migratory effect)” value in series [2] (for 24 hours on the 25% of most motile cells, at 10^−8 M) is −34%/p < 0.001; in series [5], −21%/p < 0.001. Moreover, in series [4], the “migration level of cancer cells” value is listed as “induced a decrease in the migration level”.
Consider `COc1ccc(OC)c(C2CC3C4CC=C5CC(OC6O[C@H](CO[C@@H]7O[C@H](CO)[C@@H](O)[C@H](O)[C@H]7O)[C@@H](O)[C@H](O)[C@H]6O)CCC5(C)C4CCC3(C)C2C(C)=O)c1` (some centres unmarked) [UBS3328], for which the “Max. effects (anti-migratory effect)” value is −40%/p < 0.001 in series [2] (setting [6]) and −27%/p < 0.001 in series [3] (for 12 hours on the entire cell population, at 10^−10 M). Besides, the “migration level of cancer cells” value in series [4] was “induced a decrease in the migration level”.

As usually defined, the IC50 is the concentration that gives 50% inhibition. Lower therefore signals inhibition by little substance.
